How the values were obtained:
Type in all cases: cell-based
[1] = test system: A431 (epidermoid carcinoma); experiment: Antiproliferative activity (CCK-8 cell viability), A431; conditions: Homo sapiens, 72 h, read-out: Antiproliferative activity in cancerous cells, A431 (inhibition of cell growth); for inhibition at 3.3 µM: A-431, Compound concentration: 3.3 μM; for inhibition at 10 µM: A-431, Compound concentration: 10 μM; for inhibition at 30 µM: A-431, Compound concentration: 30 μM
Procedure, shortened: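 This growth inhibition assay used A431 cells maintained in Dulbecco's modified Eagle's medium plus 10% fetal bovine serum. Cells were seeded in 96-well plates, treated with compound for 72 h at 37° C., and then given 10 μL CCK-8 solution. After a further 4 h, absorbance was read at 450 nm.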

[2] = test system: B16F10 (malignant melanoma); experiment: Antiproliferative activity (CCK-8 cell viability), B16F10; conditions: Mus musculus, 72 h, read-out: Antiproliferative activity in cancerous cells, B16F10 (inhibition of cell growth); for inhibition at 3.3 µM: B16-F10, Compound concentration: 3.3 μM; for inhibition at 10 µM: B16-F10, Compound concentration: 10 μM; for inhibition at 30 µM: B16-F10, Compound concentration: 30 μM
Procedure, shortened: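 Cell growth inhibition was measured in B16F10 malignant melanoma cells with a Cell Counting Kit-8 viability assay. Cells were maintained in DMEM plus 10% fetal bovine serum, seeded at 2,000-5,000 cells/well in 96-well plates, and treated for 72 h at 37° C. Viability was expressed relative to DMSO-treated vehicle control wells.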

[3] = test system: MDA-MB-231 (breast cancer); experiment: Antiproliferative activity (CCK-8 cell viability), MDA-MB-231; conditions: Homo sapiens, 72 h, read-out: Antiproliferative activity in cancerous cells, MDA-MB-231 (inhibition of cell growth); for inhibition at 3.3 µM: Compound concentration: 3.3 μM; for inhibition at 10 µM: Compound concentration: 10 μM; for inhibition at 30 µM: Compound concentration: 30 μM
Procedure, shortened: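 Growth inhibition of human MDA-MB-231 breast cancer cells was assessed with a Cell Counting Kit-8. Cells cultured in DMEM plus 10% FBS were seeded at 2,000-5,000 cells/well, treated after attachment, and kept 72 h at 37° C. CCK-8 solution (10 μL) was added for 4 h, and absorbance at 450 nm was compared with DMSO-treated controls.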

[4] = test system: A549 (lung adenocarcinoma); experiment: Antiproliferative activity (CCK-8 cell viability), A549; conditions: Homo sapiens, 72 h, read-out: Antiproliferative activity in cancerous cells, A549 (inhibition of cell growth); for inhibition at 3.3 µM: Compound concentration: 3.3 μM; for inhibition at 10 µM: Compound concentration: 10 μM; for inhibition at 30 µM: Compound concentration: 30 μM
Procedure, shortened: (§1)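 Growth inhibition graded in bands from percent viability against DMSO vehicle, read as CCK-8 absorbance at 450 nm. Compound tested at 3.3, 10 or 30 μM for 72 h, 37 °C; media contained 10% FBS: DMEM for HepG2/SW480, MEM for HeLa, F-12K for A549.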

[5] = test system: HeLa (cervical cancer); experiment: Antiproliferative activity (CCK-8 cell viability), HeLa; conditions: Homo sapiens, 72 h, read-out: Antiproliferative activity in cancerous cells, HELA (inhibition of cell growth); for inhibition at 3.3 µM: Compound concentration: 3.3 μM; for inhibition at 10 µM: Compound concentration: 10 μM; for inhibition at 30 µM: Compound concentration: 30 μM
Procedure, shortened: as §1

[6] = test system: SW480 (colon cancer); experiment: Antiproliferative activity (CCK-8 cell viability), SW480; conditions: Homo sapiens, 72 h, read-out: Antiproliferative activity in cancerous cells, SW480 (inhibition of cell growth); for inhibition at 3.3 µM: Compound concentration: 3.3 μM; for inhibition at 10 µM: Compound concentration: 10 μM; for inhibition at 30 µM: Compound concentration: 30 μM
Procedure, shortened: as §1

[7] = test system: HepG2 (liver cancer); experiment: Antiproliferative activity (CCK-8 cell viability), HepG2; conditions: Homo sapiens, 72 h, read-out: Antiproliferative activity in cancerous cells, HepG2 (inhibition of cell growth); for inhibition at 3.3 µM: Compound concentration: 3.3 μM; for inhibition at 10 µM: Compound concentration: 10 μM; for inhibition at 30 µM: Compound concentration: 30 μM
Procedure, shortened: as §1

## CC1=C(CC(=O)O)c2cc(F)ccc2/C1=C\c1ccc(C(=O)c2cc3ccccc3o2)cc1 [C309, (Z)-2-(1-(4-(Benzofuran-2-carbonyl)benzylidene)-5-fluoro-2-methyl-1H-inden-3-yl)acetic acid]
[1]
  inhibition at 3.3 µM: 30 to 50%
  inhibition at 10 µM: ≥ 50%
  inhibition at 30 µM: ≥ 50%
[2]
  inhibition at 3.3 µM: < 30%
  inhibition at 10 µM: ≥ 50%
  inhibition at 30 µM: ≥ 50%
[3]
  inhibition at 3.3 µM: 30 to 50%
  inhibition at 10 µM: 30 to 50%
  inhibition at 30 µM: ≥ 50%
[4]
  inhibition at 3.3 µM: < 30%
  inhibition at 10 µM: 30 to 50%
  inhibition at 30 µM: ≥ 50%
[5]
  inhibition at 3.3 µM: 30 to 50%
  inhibition at 10 µM: ≥ 50%
  inhibition at 30 µM: ≥ 50%
[6]
  inhibition at 3.3 µM: < 30%
  inhibition at 10 µM: ≥ 50%
  inhibition at 30 µM: ≥ 50%
[7]
  inhibition at 3.3 µM: < 30%
  inhibition at 10 µM: ≥ 50%
  inhibition at 30 µM: ≥ 50%

## CC1=C(CC(=O)O)c2cc(F)ccc2/C1=C\c1cccc(C(O)c2ccccc2)c1 (stereo not drawn) [C310, (Z)-2-(5-Fluoro-1-(3-(hydroxy(phenyl)methyl)benzylidene)-2-methyl-1H-inden-3-yl)acetic acid]
[1]
  inhibition at 3.3 µM: ≥ 50%
  inhibition at 10 µM: 30 to 50%
  inhibition at 30 µM: ≥ 50%
[2]
  inhibition at 3.3 µM: < 30%
  inhibition at 10 µM: 30 to 50%
  inhibition at 30 µM: ≥ 50%
[3]
  inhibition at 3.3 µM: < 30%
  inhibition at 10 µM: ≥ 50%
  inhibition at 30 µM: ≥ 50%
[4]
  inhibition at 3.3 µM: 30 to 50%
  inhibition at 10 µM: 30 to 50%
  inhibition at 30 µM: ≥ 50%
[5]
  inhibition at 3.3 µM: ≥ 50%
  inhibition at 10 µM: ≥ 50%
  inhibition at 30 µM: ≥ 50%
[6]
  inhibition at 3.3 µM: ≥ 50%
  inhibition at 10 µM: ≥ 50%
  inhibition at 30 µM: ≥ 50%
[7]
  inhibition at 3.3 µM: 30 to 50%
  inhibition at 10 µM: ≥ 50%
  inhibition at 30 µM: ≥ 50%

## CC1=C(CC(=O)O)c2cc(F)ccc2/C1=C\c1ccc(Cc2cc3ccccc3o2)cc1 [C311, (Z)-2-(1-(4-(Benzofuran-2-ylmethyl)benzylidene)-5-fluoro-2-methyl-1H-inden-3-yl)acetic acid]
[1]
  inhibition at 3.3 µM: 30 to 50%
  inhibition at 10 µM: 30 to 50%
  inhibition at 30 µM: 30 to 50%
[2]
  inhibition at 3.3 µM: ≥ 50%
  inhibition at 10 µM: ≥ 50%
  inhibition at 30 µM: ≥ 50%
[3]
  inhibition at 3.3 µM: < 30%
  inhibition at 10 µM: ≥ 50%
  inhibition at 30 µM: ≥ 50%
[4]
  inhibition at 3.3 µM: < 30%
  inhibition at 10 µM: < 30%
  inhibition at 30 µM: < 30%
[5]
  inhibition at 3.3 µM: < 30%
  inhibition at 10 µM: < 30%
  inhibition at 30 µM: 30 to 50%
[6]
  inhibition at 3.3 µM: < 30%
  inhibition at 10 µM: < 30%
  inhibition at 30 µM: < 30%
[7]
  inhibition at 3.3 µM: ≥ 50%
  inhibition at 10 µM: ≥ 50%
  inhibition at 30 µM: ≥ 50%

## CC1=C(CC(=O)O)c2cc(F)ccc2/C1=C\c1ccc(Cc2cc3ccccc3s2)cc1 [C312, (Z)-2-(1-(4-(Benzo[b]thiophen-2-ylmethyl)benzylidene)-5-fluoro-2-methyl-1H-inden-3-yl)acetic acid]
[1]
  inhibition at 3.3 µM: ≥ 50%
  inhibition at 10 µM: ≥ 50%
  inhibition at 30 µM: ≥ 50%
[2]
  inhibition at 3.3 µM: ≥ 50%
  inhibition at 10 µM: ≥ 50%
  inhibition at 30 µM: ≥ 50%
[3]
  inhibition at 3.3 µM: 30 to 50%
  inhibition at 10 µM: ≥ 50%
  inhibition at 30 µM: ≥ 50%
[4]
  inhibition at 3.3 µM: < 30%
  inhibition at 10 µM: ≥ 50%
  inhibition at 30 µM: ≥ 50%
[5]
  inhibition at 3.3 µM: ≥ 50%
  inhibition at 10 µM: ≥ 50%
  inhibition at 30 µM: ≥ 50%
[6]
  inhibition at 3.3 µM: ≥ 50%
  inhibition at 10 µM: ≥ 50%
  inhibition at 30 µM: ≥ 50%
[7]
  inhibition at 3.3 µM: ≥ 50%
  inhibition at 10 µM: ≥ 50%
  inhibition at 30 µM: ≥ 50%

## CC1=C(CC(=O)O)c2cc(F)ccc2/C1=C\c1cccc(C2(c3ccccc3)SCCS2)c1 [C352, (Z)-2-(5-Fluoro-2-methyl-1-(3-(2-phenyl-1,3-dithiolan-2-yl)benzylidene)-1H-inden-3-yl)acetic acid]
[1]
  inhibition at 3.3 µM: < 30%
  inhibition at 10 µM: ≥ 50%
  inhibition at 30 µM: ≥ 50%
[2]
  inhibition at 3.3 µM: < 30%
  inhibition at 10 µM: ≥ 50%
  inhibition at 30 µM: ≥ 50%
[3]
  inhibition at 3.3 µM: 30 to 50%
  inhibition at 10 µM: ≥ 50%
  inhibition at 30 µM: ≥ 50%
[4]
  inhibition at 3.3 µM: < 30%
  inhibition at 10 µM: ≥ 50%
  inhibition at 30 µM: ≥ 50%
[5]
  inhibition at 3.3 µM: < 30%
  inhibition at 10 µM: ≥ 50%
  inhibition at 30 µM: ≥ 50%
[6]
  inhibition at 3.3 µM: < 30%
  inhibition at 10 µM: ≥ 50%
  inhibition at 30 µM: ≥ 50%
[7]
  inhibition at 3.3 µM: < 30%
  inhibition at 10 µM: ≥ 50%
  inhibition at 30 µM: ≥ 50%

## CC1=C(CC(=O)O)c2cc(F)ccc2/C1=C\c1ccc(C2(c3ccccc3)SCCS2)cc1 [C353, (Z)-2-(5-Fluoro-2-methyl-1-(4-(2-phenyl-1,3-dithiolan-2-yl)benzylidene)-1H-inden-3-yl)acetic acid]
[1]
  inhibition at 3.3 µM: ≥ 50%
  inhibition at 10 µM: ≥ 50%
  inhibition at 30 µM: ≥ 50%
[2]
  inhibition at 3.3 µM: < 30%
  inhibition at 10 µM: ≥ 50%
  inhibition at 30 µM: ≥ 50%
[3]
  inhibition at 3.3 µM: ≥ 50%
  inhibition at 10 µM: ≥ 50%
  inhibition at 30 µM: ≥ 50%
[4]
  inhibition at 3.3 µM: < 30%
  inhibition at 10 µM: ≥ 50%
  inhibition at 30 µM: ≥ 50%
[5]
  inhibition at 3.3 µM: ≥ 50%
  inhibition at 10 µM: ≥ 50%
  inhibition at 30 µM: ≥ 50%
[6]
  inhibition at 3.3 µM: ≥ 50%
  inhibition at 10 µM: ≥ 50%
  inhibition at 30 µM: ≥ 50%
[7]
  inhibition at 3.3 µM: ≥ 50%
  inhibition at 10 µM: ≥ 50%
  inhibition at 30 µM: ≥ 50%

## CC1=C(CC(=O)O)c2cc(F)ccc2/C1=C\c1cccc(-c2ccc(C(F)(F)F)cc2)c1 [D1, (Z)-2-(5-Fluoro-2-methyl-1-((4′-(trifluoromethyl)-[1,1′-biphenyl]-3-yl)-methylene)-1H-inden-3-yl)acetic acid]
[1]
  inhibition at 3.3 µM: 30 to 50%
  inhibition at 10 µM: ≥ 50%
  inhibition at 30 µM: ≥ 50%
[2]
  inhibition at 3.3 µM: < 30%
  inhibition at 10 µM: ≥ 50%
  inhibition at 30 µM: ≥ 50%
[3]
  inhibition at 3.3 µM: < 30%
  inhibition at 10 µM: ≥ 50%
  inhibition at 30 µM: ≥ 50%
[4]
  inhibition at 3.3 µM: < 30%
  inhibition at 10 µM: ≥ 50%
  inhibition at 30 µM: ≥ 50%
[5]
  inhibition at 3.3 µM: ≥ 50%
  inhibition at 10 µM: ≥ 50%
  inhibition at 30 µM: ≥ 50%
[6]
  inhibition at 3.3 µM: < 30%
  inhibition at 10 µM: ≥ 50%
  inhibition at 30 µM: ≥ 50%
[7]
  inhibition at 3.3 µM: 30 to 50%
  inhibition at 10 µM: ≥ 50%
  inhibition at 30 µM: ≥ 50%
